Reference: article doi:10.1101/2022.07.06.498982v1 (biorxiv, 2022)

Columns and labels:
[1] = target: soluble recombinant human TLR4 (hTLR4) (Homo sapiens, UniProt O00206); assay: biochemical
[2] = target: soluble recombinant mouse TLR4 (mTLR4) (Mus musculus, UniProt Q9QUK6); assay: biochemical
Sequence of soluble recombinant mouse TLR4 (mTLR4) (Q9QUK6 26-638 limits assumed): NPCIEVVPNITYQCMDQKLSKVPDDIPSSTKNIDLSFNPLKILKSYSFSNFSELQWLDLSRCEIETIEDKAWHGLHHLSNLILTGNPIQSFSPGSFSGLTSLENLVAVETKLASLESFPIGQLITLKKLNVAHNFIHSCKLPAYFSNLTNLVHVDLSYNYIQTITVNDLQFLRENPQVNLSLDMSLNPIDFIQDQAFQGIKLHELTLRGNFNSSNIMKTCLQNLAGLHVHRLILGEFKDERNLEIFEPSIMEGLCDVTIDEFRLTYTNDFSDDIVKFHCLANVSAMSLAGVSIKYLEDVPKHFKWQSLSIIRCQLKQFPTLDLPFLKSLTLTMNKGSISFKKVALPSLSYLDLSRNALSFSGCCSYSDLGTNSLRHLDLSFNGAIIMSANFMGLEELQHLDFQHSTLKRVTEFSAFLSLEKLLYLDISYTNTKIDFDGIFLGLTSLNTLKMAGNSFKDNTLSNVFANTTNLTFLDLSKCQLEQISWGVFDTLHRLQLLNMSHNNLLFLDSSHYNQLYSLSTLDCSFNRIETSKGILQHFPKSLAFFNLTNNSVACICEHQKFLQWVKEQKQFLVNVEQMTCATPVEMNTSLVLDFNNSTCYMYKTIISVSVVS

Sequence of soluble recombinant human TLR4 (hTLR4) (O00206 24-631 limits assumed): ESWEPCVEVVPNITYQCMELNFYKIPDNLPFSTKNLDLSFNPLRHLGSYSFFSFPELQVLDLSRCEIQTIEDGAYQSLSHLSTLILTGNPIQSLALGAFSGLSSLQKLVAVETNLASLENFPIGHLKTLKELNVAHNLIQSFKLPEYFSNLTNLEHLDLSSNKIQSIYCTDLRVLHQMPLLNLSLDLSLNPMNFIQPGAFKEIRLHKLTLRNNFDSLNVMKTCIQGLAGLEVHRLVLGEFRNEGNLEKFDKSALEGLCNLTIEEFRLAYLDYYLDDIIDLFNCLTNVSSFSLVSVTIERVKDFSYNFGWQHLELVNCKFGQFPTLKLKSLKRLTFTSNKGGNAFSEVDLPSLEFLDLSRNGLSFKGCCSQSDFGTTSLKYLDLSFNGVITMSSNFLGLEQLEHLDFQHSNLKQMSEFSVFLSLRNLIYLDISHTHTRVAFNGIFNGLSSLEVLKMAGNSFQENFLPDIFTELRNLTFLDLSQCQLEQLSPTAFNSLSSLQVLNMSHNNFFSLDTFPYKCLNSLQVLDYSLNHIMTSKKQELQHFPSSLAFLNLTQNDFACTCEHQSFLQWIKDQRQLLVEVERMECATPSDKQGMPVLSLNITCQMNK

## [NH2][Pt]([NH2])([Cl])[Cl] [cisplatin]
[1]
  Kd: 100 µM
[2]
  Kd: 134 µM
